Experiments:
Experiment in all cases: relative viability (nuclei count vs DMSO), 5 days (fraction); higher = more cells survive
[1] = system: 201T
Summary of the method: (§1)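 Each reported value is a median over duplicate plates. It expresses relative viability: treated-well nuclei count divided by vehicle-well nuclei count. Lung cancer cell lines in 1536-well plates were dosed by pin tool a day after seeding, alone with one drug or with a fixed anchor-drug dose plus five library-drug doses (not always all listed) in √10 steps, and nuclei were counted after 5 days.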

[2] = system: BEN
Summary of the method: as §1

[3] = system: EMC-BAC-2
Summary of the method: as §1

[4] = system: HARA
Summary of the method: as §1

[5] = system: LCLC-103H
Summary of the method: as §1

[6] = system: LOU-NH91
Summary of the method: as §1

[7] = system: NCI-H1395
Summary of the method: as §1

[8] = system: NCI-H1993
Summary of the method: as §1

[9] = system: NCI-H2023
Summary of the method: as §1

[10] = system: NCI-H2087
Summary of the method: as §1

[11] = system: NCI-H2126
Summary of the method: as §1

[12] = system: NCI-H2347
Summary of the method: as §1

[13] = system: NCI-H23
Summary of the method: as §1

[14] = system: NCI-H3122
Summary of the method: as §1

[15] = system: NCI-H441
Summary of the method: as §1

[16] = system: NCI-H522
Summary of the method: as §1

[17] = system: NCI-H596
Summary of the method: as §1

[18] = system: NCI-H647
Summary of the method: as §1

[19] = system: NCI-H650
Summary of the method: as §1

[20] = system: NCI-H727
Summary of the method: as §1

[21] = system: NCI-H838
Summary of the method: as §1

SMILES: Cc1sc2c(c1C)C(c1ccc(Cl)cc1)=N[C@@H](CC(=O)OC(C)(C)C)c1nnc(C)n1-2 [JQ1] + Cc1nc(Nc2ncc(C(=O)Nc3c(C)cccc3Cl)s2)cc(N2CCN(CCO)CC2)n1 [Dasatinib] (partner 0.075 µM)
- relative viability ([1]; first compound 0.04 µM): 0.606
- relative viability ([1]; first compound 0.1265 µM): 0.428
- relative viability ([1]; first compound 0.4 µM): 0.508
- relative viability ([1]; first compound 1.265 µM): 0.491
- relative viability ([1]; first compound 4 µM): 0.372
- relative viability ([2]; first compound 0.04 µM): 0.302
- relative viability ([2]; first compound 0.1265 µM): 0.307
- relative viability ([2]; first compound 0.4 µM): 0.309
- relative viability ([2]; first compound 1.265 µM): 0.274
- relative viability ([2]; first compound 4 µM): 0.217
- relative viability ([3]; first compound 0.04 µM): 0.33
- relative viability ([3]; first compound 0.1265 µM): 0.235
- relative viability ([3]; first compound 0.4 µM): 0.254
- relative viability ([3]; first compound 1.265 µM): 0.205
- relative viability ([3]; first compound 4 µM): 0.371
- relative viability ([4]; first compound 0.04 µM): 0.207
- relative viability ([4]; first compound 0.1265 µM): 0.242
- relative viability ([4]; first compound 0.4 µM): 0.309
- relative viability ([4]; first compound 1.265 µM): 0.236
- relative viability ([4]; first compound 4 µM): 0.247
- relative viability ([5]; first compound 0.04 µM): 0.433
- relative viability ([5]; first compound 0.1265 µM): 0.418
- relative viability ([5]; first compound 0.4 µM): 0.464
- relative viability ([5]; first compound 1.265 µM): 0.327
- relative viability ([5]; first compound 4 µM): 0.266
- relative viability ([6]; first compound 0.04 µM): 0.549
- relative viability ([6]; first compound 0.1265 µM): 0.463
- relative viability ([6]; first compound 0.4 µM): 0.324
- relative viability ([6]; first compound 1.265 µM): 0.326
- relative viability ([6]; first compound 4 µM): 0.354
- relative viability ([7]; first compound 0.04 µM): 0.36
- relative viability ([7]; first compound 0.1265 µM): 0.364
- relative viability ([7]; first compound 0.4 µM): 0.362
- relative viability ([7]; first compound 1.265 µM): 0.355
- relative viability ([7]; first compound 4 µM): 0.388
- relative viability ([8]; first compound 0.04 µM): 0.574
- relative viability ([8]; first compound 0.1265 µM): 0.798
- relative viability ([8]; first compound 0.4 µM): 0.597
- relative viability ([8]; first compound 1.265 µM): 0.532
- relative viability ([8]; first compound 4 µM): 1.44
- relative viability ([9]; first compound 0.04 µM): 0.5
- relative viability ([9]; first compound 0.1265 µM): 0.339
- relative viability ([9]; first compound 0.4 µM): 0.272
- relative viability ([9]; first compound 1.265 µM): 0.178
- relative viability ([9]; first compound 4 µM): 0.15
- relative viability ([10]; first compound 0.04 µM): 0.781
- relative viability ([10]; first compound 0.1265 µM): 0.774
- relative viability ([10]; first compound 0.4 µM): 0.466
- relative viability ([10]; first compound 1.265 µM): 0.414
- relative viability ([10]; first compound 4 µM): 0.324
- relative viability ([11]; first compound 0.04 µM): 0.651
- relative viability ([11]; first compound 0.1265 µM): 0.575
- relative viability ([11]; first compound 0.4 µM): 0.431
- relative viability ([11]; first compound 1.265 µM): 0.433
- relative viability ([11]; first compound 4 µM): 0.35
- relative viability ([12]; first compound 0.04 µM): 0.273
- relative viability ([12]; first compound 0.1265 µM): 0.395
- relative viability ([12]; first compound 0.4 µM): 0.304
- relative viability ([12]; first compound 1.265 µM): 0.371
- relative viability ([12]; first compound 4 µM): 0.235
- relative viability ([13]; first compound 0.04 µM): 0.666
- relative viability ([13]; first compound 0.1265 µM): 0.656
- relative viability ([13]; first compound 0.4 µM): 0.579
- relative viability ([13]; first compound 1.265 µM): 0.275
- relative viability ([13]; first compound 4 µM): 0.344
- relative viability ([14]; first compound 0.04 µM): 0.777
- relative viability ([14]; first compound 0.1265 µM): 0.551
- relative viability ([14]; first compound 0.4 µM): 0.582
- relative viability ([14]; first compound 1.265 µM): 0.463
- relative viability ([14]; first compound 4 µM): 0.209
- relative viability ([15]; first compound 0.04 µM): 0.558
- relative viability ([15]; first compound 0.1265 µM): 0.572
- relative viability ([15]; first compound 0.4 µM): 0.634
- relative viability ([15]; first compound 1.265 µM): 0.273
- relative viability ([15]; first compound 4 µM): 0.209
- relative viability ([16]; first compound 0.04 µM): 0.951
- relative viability ([16]; first compound 0.1265 µM): 0.641
- relative viability ([16]; first compound 0.4 µM): 0.584
- relative viability ([16]; first compound 1.265 µM): 0.575
- relative viability ([16]; first compound 4 µM): 0.537
- relative viability ([17]; first compound 0.04 µM): 0.671
- relative viability ([17]; first compound 0.1265 µM): 0.456
- relative viability ([17]; first compound 0.4 µM): 0.559
- relative viability ([17]; first compound 1.265 µM): 0.281
- relative viability ([17]; first compound 4 µM): 0.29
- relative viability ([18]; first compound 0.04 µM): 0.147
- relative viability ([18]; first compound 0.1265 µM): 0.0904
- relative viability ([18]; first compound 0.4 µM): 0.124
- relative viability ([18]; first compound 1.265 µM): 0.045
- relative viability ([18]; first compound 4 µM): 0.0403
- relative viability ([19]; first compound 0.04 µM): 0.462
- relative viability ([19]; first compound 0.1265 µM): 0.301
- relative viability ([19]; first compound 0.4 µM): 0.328
- relative viability ([19]; first compound 1.265 µM): 0.277
- relative viability ([19]; first compound 4 µM): 0.244
- relative viability ([20]; first compound 0.04 µM): 0.354
- relative viability ([20]; first compound 0.1265 µM): 0.555
- relative viability ([20]; first compound 0.4 µM): 0.398
- relative viability ([20]; first compound 1.265 µM): 0.295
- relative viability ([20]; first compound 4 µM): 0.426
- relative viability ([21]; first compound 0.04 µM): 0.294
- relative viability ([21]; first compound 0.1265 µM): 0.217
- relative viability ([21]; first compound 0.4 µM): 0.264
- relative viability ([21]; first compound 1.265 µM): 0.229
- relative viability ([21]; first compound 4 µM): 0.201

Reference: the supplement of paper PMC10307832
